Like-named read-outs stand apart in the source and are kept apart here.
Experiments:
[1] = Biodistribution in mice bearing BxPC-3 xenograft tumors; type: in vivo; conditions: female, athymic nu/nu-nude, mouse, in vivo, total radioactivity; for tissue uptake at 4 h: 4 h p.i.; for tissue uptake at 24 h: 24 h p.i.; for tissue uptake at 48 h: 48 h p.i.
Procedure: (§1) All animal procedures conformed to the Animal Welfare Act and were approved by the University of California, Davis Institutional Animal Care and Use Committee. Female athymic nu/nu-nude mice (6–8 weeks old) were purchased from Charles River Laboratories (Wilmington, MA, USA) and provided food and water on an ad libitum basis. BxPC-3 xenografts were implanted according to previous methods. Briefly, BxPC-3 cells were evaluated by flow cytometry to confirm integrin αvβ6 expression levels, injected subcutaneously into the left flank [5 million in 100 μL of a 1:1 mixture of serum-free RPMI and GFR Matrigel (Corning, New York, NY, USA)], and allowed to grow for approximately 3 weeks until tumors reached a diameter of 0.5–1 cm.
(§2) For biodistribution studies the [^64Cu]1–4 (3.7–5.55 MBq) in PBS (100 μL, pH 7.2) was injected intravenously (i.v.) via catheter into the tail vein. Following a conscious uptake period, the mice were anesthetized (5% isoflurane), euthanized, and dissected ([^64Cu]1 and [^64Cu]2, n = 3/radiolabeled peptide/time point; 4, 24, and 48 h p.i.; the 72 h time point was obtained from the imaging animals after the 72 h PET/CT scans; compounds [^64Cu]3 and [^64Cu]4, n = 2/radiolabeled compound at 4 h p.i.). Tissues were rapidly collected, weighed, and radioactivity measured with a γ-counter. Decay-corrected radioactivity concentrations are expressed as the percentage of injected dose per gram of tissue (% ID/g). Data are reported as mean ± standard deviation (SD) (Figure S20, S21 and S25).

BxPC-3 xenograft tumors = test: as above; type: in vivo; conditions: for Kidneys uptake: i.v.
Procedure: as §1, §2

[2] = iv, i.v., read-out: Blood uptake
[3] = iv, i.v., read-out: Bone uptake
[4] = iv, i.v., read-out: Brain uptake
[5] = iv, i.v., read-out: BxPC-3 Tumor uptake
[6] = iv, i.v., read-out: Fecal Matter radioactivity
[7] = iv, i.v., read-out: Gall Bladder uptake
[8] = iv, i.v., read-out: Heart uptake
[9] = iv, i.v., read-out: Kidneys uptake
[10] = iv, i.v., read-out: Lg. Intestines uptake
[11] = iv, i.v., read-out: Liver uptake
[12] = iv, i.v., read-out: Lung uptake
[13] = iv, i.v., read-out: Muscle uptake
[14] = iv, i.v., read-out: Pancreas uptake
[15] = iv, i.v., read-out: Skin uptake
[16] = iv, i.v., read-out: Sm. Intestines uptake
[17] = iv, i.v., read-out: Spleen uptake
[18] = iv, i.v., read-out: Stomach uptake
[19] = iv, i.v., read-out: Urine radioactivity

Cc1cc(-c2ccc(NC(=O)CCC(=O)NCCCC[C@H](NC(=O)CN3CCN(CC(=O)O)CCN(CC(=O)O)CCN(CC(=O)O)CC3)C(=O)NCCOCCOCCOCCOCCOCCOCCOCCOCCOCCOCCOCCOCCOCCOCCOCCOCCOCCOCCOCCOCCOCCOCCOCCOCCOCCOCCOCCOCCC(=O)N[C@@H](CC(N)=O)C(=O)N[C@@H](C)C(=O)N[C@H](C(=O)N3CCC[C@H]3C(=O)N[C@@H](CC(N)=O)C(=O)N[C@@H](CC(C)C)C(=O)N[C@@H](CCCNC(=N)N)C(=O)NCC(=O)N[C@@H](CC(=O)O)C(=O)N[C@@H](CC(C)C)C(=O)N[C@@H](CCC(N)=O)C(=O)N[C@H](C(=O)N[C@@H](CC(C)C)C(=O)N[C@@H](C)C(=O)N[C@@H](CCC(N)=O)C(=O)N[C@@H](CCCNC(=N)N)C(=O)N[C@H](C(=O)N[C@@H](C)C(=O)N[C@@H](CCCNC(=N)N)C(=O)N[C@H](C(=O)NCCOCCOCCOCCOCCOCCOCCOCCOCCOCCOCCOCCOCCOCCOCCOCCOCCOCCOCCOCCOCCOCCOCCOCCOCCOCCOCCOCCOCCC(N)=O)[C@@H](C)O)C(C)C)C(C)C)C(C)C)c(C)c2)ccc1N=Nc1ccc2c(S(=O)(=O)O)cc(S(=O)(=O)O)c(N)c2c1O [[^64Cu]1, [^64Cu]Cu DOTA-EB-αvβ6-BP, metal not drawn]
tissue uptake at 4 h [1, 2]: 1.3 ± 0.31 %ID/g
tissue uptake at 4 h [1, 3]: 0.44 ± 0.04 %ID/g
tissue uptake at 4 h [1, 4]: 0.09 ± 0.02 %ID/g
tissue uptake at 4 h [1, 5]: 5.29 ± 0.59 %ID/g
tissue uptake at 4 h [1, 6]: 3.03 ± 0.67 %ID/g
tissue uptake at 4 h [1, 7]: 2.12 ± 0.51 %ID/g
tissue uptake at 4 h [1, 8]: 0.99 ± 0.08 %ID/g
tissue uptake at 4 h [1, 9]: 75.5 ± 7.26 %ID/g
tissue uptake at 4 h [1, 10]: 4.13 ± 0.1 %ID/g
tissue uptake at 4 h [1, 11]: 1.64 ± 0.2 %ID/g
tissue uptake at 4 h [1, 12]: 2.71 ± 0.57 %ID/g
tissue uptake at 4 h [1, 13]: 0.67 ± 0.1 %ID/g
tissue uptake at 4 h [1, 14]: 0.46 ± 0.06 %ID/g
tissue uptake at 4 h [1, 15]: 1.56 ± 0.34 %ID/g
tissue uptake at 4 h [1, 16]: 4.72 ± 0.55 %ID/g
tissue uptake at 4 h [1, 17]: 0.32 ± 0.28 %ID/g
tissue uptake at 4 h [1, 18]: 6.41 ± 0.64 %ID/g
tissue uptake at 4 h [1, 19]: 19.6 ± 10.5 %ID/g
tissue uptake at 24 h [1, 2]: 0.33 ± 0.01 %ID/g
tissue uptake at 24 h [1, 3]: 0.34 ± 0.13 %ID/g
tissue uptake at 24 h [1, 4]: 0.09 ± 0.01 %ID/g
tissue uptake at 24 h [1, 5]: 5.03 ± 0.97 %ID/g
tissue uptake at 24 h [1, 6]: 2.85 ± 0.55 %ID/g
tissue uptake at 24 h [1, 7]: 1.85 ± 0.27 %ID/g
tissue uptake at 24 h [1, 8]: 0.92 ± 0.05 %ID/g
tissue uptake at 24 h [1, 9]: 40.5 ± 7.7 %ID/g
tissue uptake at 24 h [1, 10]: 3.46 ± 0.45 %ID/g
tissue uptake at 24 h [1, 11]: 2.09 ± 0.1 %ID/g
tissue uptake at 24 h [1, 12]: 2.79 ± 1.62 %ID/g
tissue uptake at 24 h [1, 13]: 0.5 ± 0.2 %ID/g
tissue uptake at 24 h [1, 14]: 0.48 ± 0.03 %ID/g
tissue uptake at 24 h [1, 15]: 1.08 ± 0.3 %ID/g
tissue uptake at 24 h [1, 16]: 2.78 ± 0.31 %ID/g
tissue uptake at 24 h [1, 17]: 0.56 ± 0.16 %ID/g
tissue uptake at 24 h [1, 18]: 4.18 ± 0.54 %ID/g
tissue uptake at 24 h [1, 19]: 5.01 ± 0.29 %ID/g
tissue uptake at 48 h [1, 2]: 0.33 ± 0.1 %ID/g
tissue uptake at 48 h [1, 3]: 0.3 ± 0.08 %ID/g
tissue uptake at 48 h [1, 4]: 0.12 ± 0.02 %ID/g
tissue uptake at 48 h [1, 5]: 4 ± 1.51 %ID/g
tissue uptake at 48 h [1, 6]: 2.34 ± 0.89 %ID/g
tissue uptake at 48 h [1, 7]: 1.75 ± 0.61 %ID/g
tissue uptake at 48 h [1, 8]: 1.02 ± 0.17 %ID/g
tissue uptake at 48 h [1, 9]: 26.2 ± 5.89 %ID/g
tissue uptake at 48 h [1, 10]: 2.65 ± 0.05 %ID/g
tissue uptake at 48 h [1, 11]: 2.59 ± 0.51 %ID/g
tissue uptake at 48 h [1, 12]: 2.33 ± 0.32 %ID/g
tissue uptake at 48 h [1, 13]: 0.49 ± 0.07 %ID/g
tissue uptake at 48 h [1, 14]: 0.41 ± 0.2 %ID/g
tissue uptake at 48 h [1, 15]: 1.12 ± 0.18 %ID/g
tissue uptake at 48 h [1, 16]: 1.85 ± 0.07 %ID/g
tissue uptake at 48 h [1, 17]: 0.5 ± 0.18 %ID/g
tissue uptake at 48 h [1, 18]: 3.02 ± 0.52 %ID/g
tissue uptake at 48 h [1, 19]: 3.92 ± 1.05 %ID/g
tissue uptake at 72 h ([1]; iv, 72 h p.i., i.v., read-out: Blood uptake): 0.35 ± 0.08 %ID/g
tissue uptake at 72 h ([1]; iv, 72 h p.i., i.v., read-out: Bone uptake): 0.25 ± 0.13 %ID/g
tissue uptake at 72 h ([1]; iv, 72 h p.i., i.v., read-out: Brain uptake): 0.16 ± 0.04 %ID/g
tissue uptake at 72 h ([1]; iv, 72 h p.i., i.v., read-out: BxPC-3 Tumor uptake): 3.32 ± 0.46 %ID/g
tissue uptake at 72 h ([1]; iv, 72 h p.i., i.v., read-out: Fecal Matter radioactivity): 1.81 ± 0.74 %ID/g
tissue uptake at 72 h ([1]; iv, 72 h p.i., i.v., read-out: Gall Bladder uptake): 1.75 ± 0.65 %ID/g
tissue uptake at 72 h ([1]; iv, 72 h p.i., i.v., read-out: Heart uptake): 1.15 ± 0.2 %ID/g
tissue uptake at 72 h ([1]; iv, 72 h p.i., i.v., read-out: Kidneys uptake): 20 ± 6.91 %ID/g
tissue uptake at 72 h ([1]; iv, 72 h p.i., i.v., read-out: Lg. Intestines uptake): 1.95 ± 0.29 %ID/g
tissue uptake at 72 h ([1]; iv, 72 h p.i., i.v., read-out: Liver uptake): 2.36 ± 0.51 %ID/g
tissue uptake at 72 h ([1]; iv, 72 h p.i., i.v., read-out: Lung uptake): 1.88 ± 0.11 %ID/g
tissue uptake at 72 h ([1]; iv, 72 h p.i., i.v., read-out: Muscle uptake): 0.44 ± 0.12 %ID/g
tissue uptake at 72 h ([1]; iv, 72 h p.i., i.v., read-out: Pancreas uptake): 0.59 ± 0.12 %ID/g
tissue uptake at 72 h ([1]; iv, 72 h p.i., i.v., read-out: Skin uptake): 0.88 ± 0.12 %ID/g
tissue uptake at 72 h ([1]; iv, 72 h p.i., i.v., read-out: Sm. Intestines uptake): 1.38 ± 0.18 %ID/g
tissue uptake at 72 h ([1]; iv, 72 h p.i., i.v., read-out: Spleen uptake): 0.58 ± 0.16 %ID/g
tissue uptake at 72 h ([1]; iv, 72 h p.i., i.v., read-out: Stomach uptake): 2.02 ± 0.16 %ID/g
tissue uptake at 72 h ([1]; iv, 72 h p.i., i.v., read-out: Urine radioactivity): 3.17 ± 1.58 %ID/g
tissue uptake at 72 h ([1]; 72 h, read-out: GI uptake): < 3.2 %ID/g
tissue uptake ([1]; throughout 4–72 h, read-out: Liver uptake throughout): < 3 %ID/g
Tumor-Blood ratio (BxPC-3 xenograft tumors; 4 h p.i.): > 4/1
Tumor-Kidney ratio (BxPC-3 xenograft tumors; 4 h p.i.): 0.07 ± 0.003
Tumor-Lg Intestines ratio (BxPC-3 xenograft tumors; 4 h p.i.): 1.28 ± 0.12
Tumor-Liver ratio (BxPC-3 xenograft tumors; 4 h p.i.): 3.2–4.9
Tumor-Muscle ratio (BxPC-3 xenograft tumors; 4 h p.i.): > 8/1
Tumor-Sm Intestines ratio (BxPC-3 xenograft tumors; 4 h p.i.): 1.12 ± 0.05
Tumor-Stomach ratio (BxPC-3 xenograft tumors; 4 h p.i.): 0.83 ± 0.03
Kidneys uptake (BxPC-3 xenograft tumors; 4 h p.i.): 75.5 ± 7.3 % ID/g
Tumor-Blood ratio (BxPC-3 xenograft tumors; 4 h p.i., listed as [64Cu]1): 4.30 ± 1.47
Tumor-Liver ratio (BxPC-3 xenograft tumors; 4 h p.i., listed as [64Cu]1): 3.24 ± 0.14
Tumor-Muscle ratio (BxPC-3 xenograft tumors; 4 h p.i., listed as [64Cu]1): 7.95 ± 0.55
Tumor-Blood ratio (BxPC-3 xenograft tumors; 24 h p.i.): 15.41 ±3.77
Tumor-Kidney ratio (BxPC-3 xenograft tumors; 24 h p.i.): 0.13 ± 0.06
Tumor-Lg Intestines ratio (BxPC-3 xenograft tumors; 24 h p.i.): 1.41 ±0.43
Tumor-Liver ratio (BxPC-3 xenograft tumors; 24 h p.i.): 2.39 ± 0.59
Tumor-Muscle ratio (BxPC-3 xenograft tumors; 24 h p.i.): 9.47 ±4.84
Tumor-Sm Intestines ratio (BxPC-3 xenograft tumors; 24 h p.i.): 1.75 ±0.52
Tumor-Stomach ratio (BxPC-3 xenograft tumors; 24 h p.i.): 1.19 ±0.02
Tumor-Blood ratio (BxPC-3 xenograft tumors; 48 h p.i.): 12.03± 1.44
Tumor-Kidney ratio (BxPC-3 xenograft tumors; 48 h p.i.): 0.15 ± 0.02
Tumor-Lg Intestines ratio (BxPC-3 xenograft tumors; 48 h p.i.): 1.51 ± 0.58
Tumor-Liver ratio (BxPC-3 xenograft tumors; 48 h p.i.): 1.51 ± 0.29
Tumor-Muscle ratio (BxPC-3 xenograft tumors; 48 h p.i.): 8.39 ± 3.59
Tumor-Sm Intestines ratio (BxPC-3 xenograft tumors; 48 h p.i.): 2.18 ± 0.91
Tumor-Stomach ratio (BxPC-3 xenograft tumors; 48 h p.i.): 1.41 ± 0.79
Fold higher liver uptake than [64Cu]2 (BxPC-3 xenograft tumors; 72 h): > 1.8 fold
Tumor-Blood ratio (BxPC-3 xenograft tumors; 72 h p.i.): 10.07 ± 3.24
Tumor-Kidney ratio (BxPC-3 xenograft tumors; 72 h p.i.): 0.19 ± 0.08
Tumor-Lg Intestines ratio (BxPC-3 xenograft tumors; 72 h p.i.): 1.75 ±0.48
Tumor-Liver ratio (BxPC-3 xenograft tumors; 72 h p.i.): 1.47 ± 0.47
Tumor-Muscle ratio (BxPC-3 xenograft tumors; 72 h p.i.): 8.11 ±3.02
Tumor-Sm Intestines ratio (BxPC-3 xenograft tumors; 72 h p.i.): 2.43 ±0.45
Tumor-Stomach ratio (BxPC-3 xenograft tumors; 72 h p.i.): 1.65 ±0.32
Kidneys uptake (BxPC-3 xenograft tumors; 72 h p.i.): 20.0 ± 6.9 % ID/g
Fold increase in tumor accumulation over non-ABM [64Cu]Cu DOTA-αvβ6-BP (BxPC-3 xenograft tumors; BxPC-3 tumor model): > 3 fold
Fold higher kidney uptake than [64Cu]2 (BxPC-3 xenograft tumors; for at least 48 h): > 1.7 fold
